Laboratory results published in patent US20090105305A1, “Therapeutic Agents - 550” (AstraZeneca AB, priority 2006, published 2009).

Target: T1, human Fatty Acid Synthase (Homo sapiens, UniProt P49327)
T1 construct: made in house
Assay: Human FAS enzyme assay (decrease in NADPH fluorescence)
Assay type: biochemical
Settings: compounds excluded from the claims by proviso
In short: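 In-house human FAS (0.4 μg) was preincubated 15 min at RT with compound and NADPH (added at 166.6 μM) in 0.1 M Tris pH 7.5, 1 mM glutathione, 0.05% BSA. Malonyl-/acetyl-CoA (500/150 μM in substrate mix) was then added for 60 min. Readout was NADPH fluorescence loss (ex 340/em 460) over a time-zero read, with IC50 from a sigmoid fit.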

T1 sequence (P49327 whole entry): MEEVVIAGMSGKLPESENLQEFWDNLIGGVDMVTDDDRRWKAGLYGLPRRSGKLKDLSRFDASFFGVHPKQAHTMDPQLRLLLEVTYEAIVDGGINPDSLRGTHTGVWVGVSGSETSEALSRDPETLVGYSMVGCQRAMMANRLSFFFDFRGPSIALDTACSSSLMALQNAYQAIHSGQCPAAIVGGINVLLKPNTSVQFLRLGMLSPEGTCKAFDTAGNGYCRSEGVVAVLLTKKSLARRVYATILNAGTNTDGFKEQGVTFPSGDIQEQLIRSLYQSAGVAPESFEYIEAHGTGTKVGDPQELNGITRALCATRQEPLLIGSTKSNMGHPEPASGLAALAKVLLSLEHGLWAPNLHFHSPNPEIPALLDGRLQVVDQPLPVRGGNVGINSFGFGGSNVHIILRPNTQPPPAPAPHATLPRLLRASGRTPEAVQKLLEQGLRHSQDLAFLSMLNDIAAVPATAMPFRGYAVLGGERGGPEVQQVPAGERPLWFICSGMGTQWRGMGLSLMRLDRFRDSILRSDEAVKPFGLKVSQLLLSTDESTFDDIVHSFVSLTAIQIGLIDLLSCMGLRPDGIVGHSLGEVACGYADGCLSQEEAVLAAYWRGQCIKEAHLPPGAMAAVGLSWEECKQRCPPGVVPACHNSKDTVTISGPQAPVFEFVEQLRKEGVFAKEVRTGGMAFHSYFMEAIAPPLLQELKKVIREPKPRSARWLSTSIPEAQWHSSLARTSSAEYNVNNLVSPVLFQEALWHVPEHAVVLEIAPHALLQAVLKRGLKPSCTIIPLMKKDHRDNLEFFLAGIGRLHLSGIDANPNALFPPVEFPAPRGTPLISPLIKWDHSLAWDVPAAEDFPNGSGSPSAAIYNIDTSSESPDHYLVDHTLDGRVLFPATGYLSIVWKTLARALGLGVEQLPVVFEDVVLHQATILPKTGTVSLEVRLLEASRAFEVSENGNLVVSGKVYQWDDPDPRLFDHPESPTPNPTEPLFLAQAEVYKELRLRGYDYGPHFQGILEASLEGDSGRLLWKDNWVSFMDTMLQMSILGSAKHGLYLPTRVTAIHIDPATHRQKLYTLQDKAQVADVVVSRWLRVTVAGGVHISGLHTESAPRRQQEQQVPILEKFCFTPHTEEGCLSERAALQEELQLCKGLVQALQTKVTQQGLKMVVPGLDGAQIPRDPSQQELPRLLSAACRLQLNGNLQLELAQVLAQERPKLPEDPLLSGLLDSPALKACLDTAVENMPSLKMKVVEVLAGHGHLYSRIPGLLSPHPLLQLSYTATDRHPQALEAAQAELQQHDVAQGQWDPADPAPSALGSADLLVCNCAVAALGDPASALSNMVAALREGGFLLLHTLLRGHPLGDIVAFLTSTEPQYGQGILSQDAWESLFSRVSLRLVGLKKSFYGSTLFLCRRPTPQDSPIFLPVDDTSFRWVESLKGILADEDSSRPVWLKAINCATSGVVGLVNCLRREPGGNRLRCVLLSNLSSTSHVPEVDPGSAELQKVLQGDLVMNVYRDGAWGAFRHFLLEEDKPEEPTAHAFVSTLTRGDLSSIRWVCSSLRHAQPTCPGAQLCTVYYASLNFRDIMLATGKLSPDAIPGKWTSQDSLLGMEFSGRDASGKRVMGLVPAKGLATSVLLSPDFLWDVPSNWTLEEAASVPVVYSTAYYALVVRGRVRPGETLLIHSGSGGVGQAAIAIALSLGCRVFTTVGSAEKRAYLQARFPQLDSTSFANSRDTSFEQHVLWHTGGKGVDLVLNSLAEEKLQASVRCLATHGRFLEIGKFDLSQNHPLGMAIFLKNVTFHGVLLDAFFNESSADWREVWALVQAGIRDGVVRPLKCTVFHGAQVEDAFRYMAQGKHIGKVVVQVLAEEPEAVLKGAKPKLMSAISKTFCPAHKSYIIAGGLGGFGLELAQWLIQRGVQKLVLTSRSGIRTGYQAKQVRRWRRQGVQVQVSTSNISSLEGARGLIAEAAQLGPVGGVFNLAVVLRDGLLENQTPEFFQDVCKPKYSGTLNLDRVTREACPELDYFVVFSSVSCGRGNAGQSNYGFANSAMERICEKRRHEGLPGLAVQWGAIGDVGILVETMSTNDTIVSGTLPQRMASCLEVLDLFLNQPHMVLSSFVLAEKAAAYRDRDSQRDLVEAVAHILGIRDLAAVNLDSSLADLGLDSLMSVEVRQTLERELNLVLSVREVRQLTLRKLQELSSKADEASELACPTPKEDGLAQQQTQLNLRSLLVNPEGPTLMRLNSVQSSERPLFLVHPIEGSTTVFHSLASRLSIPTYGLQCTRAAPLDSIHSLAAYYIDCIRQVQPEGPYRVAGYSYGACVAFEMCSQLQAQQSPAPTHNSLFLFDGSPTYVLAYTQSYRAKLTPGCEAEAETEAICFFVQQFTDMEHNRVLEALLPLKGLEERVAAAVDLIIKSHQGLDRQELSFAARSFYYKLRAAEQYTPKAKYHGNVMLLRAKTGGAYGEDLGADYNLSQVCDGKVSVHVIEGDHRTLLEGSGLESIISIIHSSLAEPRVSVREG

SMILES | IC50s in the range of about 0.001 μM to about 30 μM
Cc1ccc(C(=O)N2CCC(c3ccc(CN)cc3)CC2)cc1NS(C)(=O)=O [N-[5-[4-[4-(aminomethyl)phenyl]piperidine-1-carbonyl]-2-methylphenyl]methanesulfonamide] | do not have IC50s in the range of about 0.001 μM to about 30 μM
Cc1ccc(C(=O)N2CCC(c3ccc(S(=O)(=O)N4CC[C@@H](O)C4)cc3)CC2)cc1NS(C)(=O)=O [N-[5-[4-[4-[(3R)-3-hydroxypyrrolidin-1-yl]sulfonylphenyl]piperidine-1-carbonyl]-2-methylphenyl]methanesulfonamide] | do not have IC50s in the range of about 0.001 μM to about 30 μM
Cc1ccc(C(=O)N2CCC(c3ccc(C#N)c(C(F)(F)F)c3)CC2)cc1NS(C)(=O)=O [N-[5-[4-[4-cyano-3-(trifluoromethyl)phenyl]piperidine-1-carbonyl]-2-methylphenyl]methanesulfonamide] | do not have IC50s in the range of about 0.001 μM to about 30 μM
Cc1ccc(C(=O)N2CCC(O)(c3cccc(C(F)(F)F)c3)CC2)cc1NS(C)(=O)=O [N-[5-[4-hydroxy-4-[3-(trifluoromethyl)phenyl]piperidine-1-carbonyl]-2-methylphenyl]methanesulfonamide] | do not have IC50s in the range of about 0.001 μM to about 30 μM
